pIC50: −log10 of the molar value.

The target of the assay is T1, full-length beta-Catenin (Uniprot ID P35222) (Homo sapiens, UniProt P35222).
T1 construct: 10 nM full-length beta-Catenin (Uniprot ID P35222)
T1 sequence (P35222 1-781): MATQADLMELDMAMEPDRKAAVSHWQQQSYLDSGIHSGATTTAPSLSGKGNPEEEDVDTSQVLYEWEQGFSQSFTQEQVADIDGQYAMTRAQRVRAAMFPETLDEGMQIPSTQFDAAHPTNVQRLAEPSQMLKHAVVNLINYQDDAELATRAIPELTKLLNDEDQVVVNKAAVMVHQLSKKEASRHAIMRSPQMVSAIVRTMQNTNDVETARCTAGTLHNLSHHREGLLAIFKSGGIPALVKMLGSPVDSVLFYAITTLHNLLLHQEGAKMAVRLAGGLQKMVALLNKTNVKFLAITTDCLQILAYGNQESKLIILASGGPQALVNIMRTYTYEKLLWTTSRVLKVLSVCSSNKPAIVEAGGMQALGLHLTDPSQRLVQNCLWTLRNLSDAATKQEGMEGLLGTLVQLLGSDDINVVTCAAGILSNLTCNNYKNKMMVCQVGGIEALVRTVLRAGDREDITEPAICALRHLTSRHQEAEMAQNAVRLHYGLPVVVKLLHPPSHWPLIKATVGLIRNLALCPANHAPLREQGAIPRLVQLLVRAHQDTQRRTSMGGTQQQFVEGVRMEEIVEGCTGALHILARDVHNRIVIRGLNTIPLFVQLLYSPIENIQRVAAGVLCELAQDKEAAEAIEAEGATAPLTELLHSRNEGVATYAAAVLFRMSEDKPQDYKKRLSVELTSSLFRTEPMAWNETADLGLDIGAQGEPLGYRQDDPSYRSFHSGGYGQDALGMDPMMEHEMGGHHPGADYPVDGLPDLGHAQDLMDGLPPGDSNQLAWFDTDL
The assay can be described thus: Fluorescence polarization IC50 (beta-catenin / 5FAM-TCF4 10-53 competition). Type of assay: binding. The settings on record: fluorescence polarization; read-out: beta-Catenin FP IC50. (Fluorescence polarisation rises when a labelled molecule tumbles more slowly, as on binding a larger partner.)
As a reminder, the pIC50 is the IC50 on a negative log10 scale, so that one unit is a factor of ten. Consider `CC(=O)N1CCC[C@]12CC=CCCCC1(CCCC=CCCCOC(=O)N3CC[C@@](C(=O)N[C@@H](Cc4ccccc4)C(=O)N[C@@H](Cc4csc5ccccc45)C(=O)N[C@@H](CCC(N)=O)C(N)=O)(C3)NC(=O)[C@H](CC(C)C)NC(=O)[C@H](Cc3ccccc3)NC(=O)[C@H](C)NC(=O)[C@H](CCO)NC(=O)[C@H]([C@@H](C)O)NC(=O)[C@H](CC(=O)O)NC1=O)NC(=O)[C@H](CC1CCCCC1)NC(=O)[C@H](CC(N)=O)NC2=O` (stereo partly drawn) [I-2447, Ac-PL3-Asn-Cha-B5-Asp-Thr-Hse-Ala-Phe-Leu-PyrS2-Phe-BztA-Gln-NH2], for which the pIC50 is 5.49.

On to `CC(=O)N1CCC[C@]12CCCCCCC1(CCCCCCCCOC(=O)N3CC[C@@](C(=O)N[C@@H](Cc4ccsc4)C(=O)N[C@@H](Cc4csc5ccccc45)C(=O)N[C@@H](CCC(N)=O)C(N)=O)(C3)NC(=O)[C@H](CC(C)C)NC(=O)[C@H](Cc3ccccc3)NC(=O)[C@H](C)NC(=O)[C@H](CCO)NC(=O)[C@H](CCC(N)=O)NC(=O)[C@H](CC(=O)O)NC1=O)NC(=O)[C@H](CC1CCCCC1)NC(=O)[C@H](CC(N)=O)NC2=O` (stereo partly drawn) [I-2451, Ac-PL3-Asn-Cha-B5-Asp-Gln-Hse-Ala-Phe-Leu-PyrS2-3Thi-BztA-Gln-NH2], for which the pIC50 is 5.31.

For the molecule `CC(=O)N1CCC[C@]12CCCCCCC1(CCCCCCCCOC(=O)N3CC[C@@](C(=O)N[C@@H](Cc4ccsc4)C(=O)N[C@@H](Cc4csc5ccccc45)C(=O)N[C@@H](CCC(N)=O)C(N)=O)(C3)NC(=O)[C@H](CC(C)C)NC(=O)[C@H](Cc3ccccc3)NC(=O)[C@H](C)NC(=O)[C@H](CCCCNC(C)C)NC(=O)[C@H](CCC(N)=O)NC(=O)[C@H](CC(=O)O)NC1=O)NC(=O)[C@H](CC1CCCCC1)NC(=O)[C@H](CC(N)=O)NC2=O` (stereo partly drawn) [I-2452, Ac-PL3-Asn-Cha-B5-Asp-Gln-iPrLys-Ala-Phe-Leu-PyrS2-3Thi-BztA-Gln-NH2], the pIC50 is 5.14.

As for `CC(=O)N1CCC[C@]12CC=CCCCC1(CCCC=CCCCOC(=O)N3CC[C@@](C(=O)N[C@@H](Cc4ccccc4C(F)(F)F)C(=O)N[C@@H](Cc4ccc5ccccc5c4)C(=O)N[C@@H](C)C(N)=O)(C3)NC(=O)[C@H](CC(C)C)NC(=O)[C@H](Cc3ccccc3)NC(=O)[C@H](C)NC(=O)[C@H](CCC(N)=O)NC(=O)[C@H](Cc3cccc(C(=O)O)c3)NC(=O)[C@H](CC(=O)O)NC1=O)NC(=O)[C@H](CC(C)(C)C)NC(=O)[C@H](CC(=O)O)NC2=O` (stereo partly drawn) [I-2461, Ac-PL3-Asp-Npg-B5-Asp-3COOHF-Gln-Ala-Phe-Leu-PyrS2-2F3MeF-2NapA-Ala-NH2], the pIC50 is 7.12.

As for `CC(=O)N1CCC[C@]12CC=CCCCC1(CCCC=CCCCOC(=O)N3CC[C@@](C(=O)N[C@@H](Cc4ccccc4C(F)(F)F)C(=O)N[C@@H](Cc4csc5ccccc45)C(=O)N[C@@H](CCC(=O)N(C)C)C(=O)N[C@@H](C)C(N)=O)(C3)NC(=O)[C@H](CC(C)C)NC(=O)[C@H](Cc3ccccc3)NC(=O)[C@H](C)NC(=O)[C@H](C)NC(=O)[C@H](Cc3cccc(C(=O)O)c3)NC(=O)[C@H](CC(=O)O)NC1=O)NC(=O)[C@H](CC(C)(C)C)NC(=O)[C@H](CC(=O)O)NC2=O` (stereo partly drawn) [I-2466, Ac-PL3-Asp-Npg-B5-Asp-3COOHF-Ala-Ala-Phe-Leu-PyrS2-2F3MeF-BztA-Me2Gln-Ala-NH2], the pIC50 was 7.82.

With `CCNC(=O)CC[C@H](NC(=O)[C@H](Cc1csc2ccccc12)NC(=O)[C@H](Cc1ccccc1C(F)(F)F)NC(=O)[C@]12CCN(C1)C(=O)OCCCC=CCCCC1(CCCC=CC[C@]3(CCCN3C(C)=O)C(=O)N[C@@H](CC(=O)O)C(=O)N[C@@H](CC(C)(C)C)C(=O)N1)C(=O)N[C@@H](CC(=O)O)C(=O)N[C@@H](Cc1cccc(C(=O)O)c1)C(=O)N[C@@H](C)C(=O)N[C@@H](C)C(=O)N[C@@H](Cc1ccccc1)C(=O)N[C@@H](CC(C)C)C(=O)N2)C(=O)N[C@@H](C)C(N)=O` (stereo partly drawn) [I-2470, Ac-PL3-Asp-Npg-B5-Asp-3COOHF-Ala-Ala-Phe-Leu-PyrS2-2F3MeF-BztA-NHEt]GlnR-Ala-NH2], the negative logarithm of the IC50 (pIC50) was 7.62.

The record behind these values is patent US20240116985A1, “STAPLED PEPTIDES AND METHODS THEREOF” (priority 2020, published 2024).
